Reference: patent publication US10188642B2, “Pharmacologically active compounds” (Cancer Research Technology Limited, priority 2012, dated 2019)
Where two headings read alike, the source gives them in different places.

Target: full length MPS1 (Homo sapiens (Human), UniProt P33981)
Assay: Measurement of inhibition of MPS1 kinase (Caliper EZ reader mobility shift assay)
Type: biochemical
Protocol: Measurement of Inhibition of MPS1 Kinase
(5 μM), ATP(10 μM), either DMSO (1% v/v) or the test compound (in the range 0.25 nM-100 μM in 1% DMSO) and assay buffer (50 mM HEPES (pH 7.0), 0.02% NaN3, 0.01% BSA, 0.1 mM Orthovandate, […], 1 μM DTT, Roche protease inhibitor). The reaction was carried out for 60 min at room temperature and stopped by the addition of buffer (10 μl) containing 20 mM EDTA, 0.05% (v/v) Brij-35, in 0.1M HEPES-buffered saline (Free acid, Sigma, UK). The plate was read on a Caliper EZ reader II (Caliper Life Sciences).
The reader provides a Software package (‘Reviewer’) which converts the peak heights into % conversion by measuring both product and substrate peak and also allows selection of control well which represent 0% and 100% inhibition respectively. The % inhibition of the compounds is calculated relative to the means of selected control wells. IC50s are determined by testing the compounds at a range of concentrations from 0.25 nM-100 μM. The % inhibitions at each concentration are then fitted to a 4 parameter logistic fit: y=(a+((b−a)/(1+((c/x^d)))) where a=asym min, b=asym max, c=IC50 and d=hill coefficient

[1] = full length MPS1 12.5 nM or 3 nM, H236 peptide 5 μM, ATP 10 μM, 60 min at room temperature, read-out: MPS1 IC50

full length MPS1, sequence (P33981 whole entry): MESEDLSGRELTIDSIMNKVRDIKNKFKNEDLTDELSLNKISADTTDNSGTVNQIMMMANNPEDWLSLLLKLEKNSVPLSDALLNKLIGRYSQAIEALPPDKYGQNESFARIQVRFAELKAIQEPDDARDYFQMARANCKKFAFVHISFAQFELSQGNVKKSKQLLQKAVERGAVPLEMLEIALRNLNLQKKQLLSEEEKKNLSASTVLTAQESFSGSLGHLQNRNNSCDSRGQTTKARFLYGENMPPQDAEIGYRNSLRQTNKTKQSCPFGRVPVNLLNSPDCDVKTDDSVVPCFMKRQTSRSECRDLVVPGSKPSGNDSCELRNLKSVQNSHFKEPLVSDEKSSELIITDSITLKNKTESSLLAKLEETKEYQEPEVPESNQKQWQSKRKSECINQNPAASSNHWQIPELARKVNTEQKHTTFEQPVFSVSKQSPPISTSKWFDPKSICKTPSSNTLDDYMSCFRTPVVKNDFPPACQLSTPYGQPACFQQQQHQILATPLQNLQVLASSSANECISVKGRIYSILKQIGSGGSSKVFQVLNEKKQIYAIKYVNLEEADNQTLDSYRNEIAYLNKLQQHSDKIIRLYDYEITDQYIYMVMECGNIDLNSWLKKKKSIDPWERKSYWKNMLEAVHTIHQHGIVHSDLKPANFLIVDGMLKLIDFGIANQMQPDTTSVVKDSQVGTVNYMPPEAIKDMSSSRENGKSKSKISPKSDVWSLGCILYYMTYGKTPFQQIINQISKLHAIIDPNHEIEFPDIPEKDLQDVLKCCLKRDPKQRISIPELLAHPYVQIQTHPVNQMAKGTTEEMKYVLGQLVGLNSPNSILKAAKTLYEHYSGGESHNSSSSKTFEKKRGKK

SMILES	IC50 [nM]	IC50 [1] [nM]
COc1cc(-c2cnc(C)n2C)ccc1Nc1cc2cc(-c3cnn(CC(O)CO)c3)ccc2cn1 (racemic) [Example 109, Racemic 3-(4-(3-((4-(1,2-Dimethyl-1H-imidazol-5-yl)-2-methoxyphenyl)amino)isoquinolin-6-yl)-1H-pyrazol-1-yl)propane-1,2-diol]	3	
CNC(=O)c1ccc2cnc(Nc3ccc(-c4cnn(C)c4)cc3OC)cc2n1 [Example 108, 7-(2-Methoxy-4-(1-methyl-1H-pyrazol-4-yl)phenylamino)-N-methyl-1,6-naphthyridine-2-carboxamide]		7
COCCn1cc(-c2ccc3cnc(Nc4ccc(-c5cnn(C)c5CO)cc4OC)cc3c2)cn1 [Example 32, (4-(3-Methoxy-4-((6-(1-(2-methoxyethyl)-1H-pyrazol-4-yl)isoquinolin-3-yl)amino)phenyl)-1-methyl-1H-pyrazol-5-yl)methanol]		3
